Reference: PubChem BioAssay (NCI)
“And” between values parts separate entries of the source, which are not always exact repeats. Identical values can stand only once.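 1) Cells in 96-well plates. 2) Compound, 48 h, 5 concentrations. 3) Linear interpolation between surrounding doses. 4) Unreached endpoint = highest concentration. GI50: concentration for 50% inhibition of growth. TGI: concentration producing complete growth inhibition.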

Key:
Experiment in all cases: NCI anticancer screen, dose series, 48 h
SN12C renal = tested on: SN12C renal
TK-10 renal = tested on: TK-10 renal
HL-60(TB) leukemia = tested on: HL-60(TB) leukemia
OVCAR-3 ovarian = tested on: OVCAR-3 ovarian
LOX IMVI melanoma = tested on: LOX IMVI melanoma
OVCAR-4 ovarian = tested on: OVCAR-4 ovarian
UACC-257 melanoma = tested on: UACC-257 melanoma
MDA-MB-435 = tested on: MDA-MB-435
SF-268 CNS = tested on: SF-268 CNS
MALME-3M melanoma = tested on: MALME-3M melanoma

Row | SMILES | TGI (SN12C renal) | TGI (TK-10 renal) | TGI (HL-60(TB) leukemia) | TGI (OVCAR-3 ovarian) | TGI (LOX IMVI melanoma) | TGI (OVCAR-4 ovarian) | TGI (UACC-257 melanoma) | TGI (MDA-MB-435) | TGI (SF-268 CNS) | TGI (MALME-3M melanoma) | GI50 (SN12C renal) | GI50 (TK-10 renal) | GI50 (HL-60(TB) leukemia) | GI50 (OVCAR-3 ovarian) | GI50 (LOX IMVI melanoma) | GI50 (OVCAR-4 ovarian) | GI50 (UACC-257 melanoma) | GI50 (SF-268 CNS) | GI50 (MALME-3M melanoma) | GI50 (MDA-MB-435)
1 | COc1cccc(C2c3cc4c(cc3OC(C)(N3CCCC3)C2C)OCO4)c1OC (stereo unspecified) | 41.6 µM | 89.1 µM | 22.8 µM | 25.4 µM | 27 µM | 46.1 µM | 64.1 µM | 49.3 µM | 81.3 µM | 66.5 µM | – | – | – | – | – | – | – | – | – | –
2 | COc1cc(C2c3[nH]c4ccccc4c3C[C@H]3COC(=O)N23)cc(OC)c1OC (stereo partly specified) | > 100 µM | > 100 µM | 0.0961 µM and < 0.01 µM | – | – | > 100 µM | > 100 µM | 0.0494 µM | > 100 µM | > 100 µM | 0.0471 µM | < 0.01 µM | < 0.01 µM | < 0.01 µM | < 0.01 µM | 0.507 µM | < 0.01 µM | < 0.01 µM | < 0.01 µM | –
3 | O=C1c2ccccc2-c2c1c1ccccc1c(=O)n2CCCCNCCCn1c2c(c3ccccc3c1=O)C(=O)c1ccccc1-2 | 1.13 µM | 4.32 µM | 23.3 µM | 2.06 µM | 0.76 µM | 15.5 µM | 13.8 µM | 4.32 µM | 6.93 µM | 6.03 µM | 0.158 µM | 0.887 µM | 8.19 µM | 0.509 µM | 0.0499 µM | 0.683 µM | 3.23 µM | 0.358 µM | 1.41 µM | 0.851 µM
4 | OC(c1cccc(-n2ccc(C(F)(F)F)n2)c1)c1cnccc1NC1CCCCCC1 (stereo unspecified) | 3.2 µM | 3.49 µM | 4.26 µM | 3.22 µM | 3.12 µM | 3.07 µM | 3.76 µM | 3.14 µM | 3.25 µM | 3.23 µM | 1.69 µM | 1.77 µM | 2.06 µM | 1.76 µM | 1.69 µM | 1.64 µM | 1.86 µM | 1.69 µM | 1.71 µM | 1.73 µM
5 | C=CC[n+]1c(/C=C/C=C2\N(C)c3ccccc3C2(C)C)sc2ccc(OC)cc21 | 11.8 µM | 14.8 µM | 0.732 µM | 22.2 µM | 15.1 µM | 28.5 µM | 0.733 µM | 10.6 µM | 19.6 µM | 0.733 µM | 0.283 µM | 0.235 µM | 0.156 µM | 0.176 µM | 0.313 µM | 0.114 µM | 0.197 µM | 0.321 µM | 0.188 µM | 0.256 µM
6 | NCCNc1c2c(c(NCCN)c3c(CO)c[nH]c13)C(=O)c1ccccc1C2=O | 12.8 µM | 75.1 µM | > 100 µM | 30.7 µM | > 100 µM | > 100 µM | 46 µM | > 100 µM | 6.42 µM | 26.3 µM | 1.59 µM | 20.7 µM | 43.4 µM | 1.14 µM | 8.32 µM | 38.3 µM | 16.8 µM | 0.795 µM | 8.51 µM | 28.7 µM
7 | CCc1nc(N)nc(N)c1-c1ccc(NCCN)c([N+](=O)[O-])c1 | > 100 µM | > 100 µM | > 100 µM | > 100 µM | > 100 µM | > 100 µM | 72.9 µM | > 100 µM | > 76.3 µM | 40.7 µM | – | – | – | – | – | – | – | – | – | –
8 | COc1cc(C(=O)/C=C/c2c(C)n([O-])c3ccc(C)cc3[n+]2=O)cc(OC)c1OC | 35.7 µM | > 34.6 µM | 6.15 µM | 7.1 µM | 5.91 µM | 24 µM | 10.2 µM | > 63.4 µM | 29.5 µM | 5.2 µM | – | 3.77 µM | 2.32 µM | 3.11 µM | 2.11 µM | 6.68 µM | 2.54 µM | 12.3 µM | 2.24 µM | 6.47 µM
9 | C/C(=N\NC(=O)c1sc(=S)n(C)c1N)c1cc2ccccc2o1 | 55.6 µM | 32.7 µM | > 100 µM | 29.9 µM | 20.1 µM | 64.2 µM | 33.4 µM | 32 µM | 37.4 µM | 56.9 µM | 17.6 µM | 15.3 µM | 26 µM | 15.5 µM | 7.05 µM | 17.9 µM | 12.8 µM | 14.4 µM | 28.1 µM | 8.65 µM
10 | COc1cc(NS(C)(=O)=O)ccc1Nc1c2ccc([N+](=O)[O-])cc2nc2c(C)cccc12 | 9.26 µM | 9.35 µM | 3.57 µM | 9.16 µM | 2.38 µM | 19.1 µM | 14.7 µM | 15 µM | 13.1 µM | 7.07 µM | 0.175 µM | 2.07 µM | 0.302 µM | 1.17 µM | 0.15 µM | 3.32 µM | 1.29 µM | 0.256 µM | 0.717 µM | 1.67 µM
11 | N#Cc1c(-c2ccccc2)nc(SCC2CO2)nc1N1CCOCC1 (stereo unspecified) | > 100 µM | 99 µM | > 100 µM | > 69.2 µM | > 100 µM | > 100 µM | > 100 µM | > 100 µM | > 100 µM | > 68.3 µM | 15.3 µM | 4.88 µM | 8.88 µM | 5.27 µM | 9.49 µM | 52.7 µM | 34.3 µM | 13.1 µM | 2.32 µM | 9.56 µM
12 | F | > 6870 µM | > 6870 µM | > 6870 µM | > 6870 µM | > 6870 µM | > 6870 µM | 4940 µM | 5500 µM | > 6870 µM | 5060 µM | 3270 µM | 3400 µM | 2360 µM | > 6870 µM | 2290 µM | > 6870 µM | 2160 µM | 3540 µM | 1920 µM | 2080 µM
13 | C[C@@H]1COCCN1c1cc(C2([S@](C)(=N)=O)CC2)nc(-c2ccnc3[nH]ccc23)n1 | > 100 µM | > 59.7 µM | 12.8 µM and > 10 µM | > 80.6 µM | 12.7 µM and > 10 µM | 40.9 µM and > 10 µM | 74 µM and > 10 µM | 35.7 µM and > 10 µM | > 100 µM | 45.1 µM and > 10 µM | 5.04 µM and 9.13 µM | 3.69 µM and 1.68 µM | 1.95 µM and 3.39 µM | 4.16 µM and 5.15 µM | 0.903 µM and 2.75 µM | 2.27 µM and 3.62 µM | 14 µM and > 10 µM | 7.1 µM and > 10 µM | 8.22 µM and 6.49 µM | 3.74 µM and 4.29 µM
